Measurements published in patent US6846824B2, “Bicyclic compounds and their use in medicine; process for their preparation and pharmaceutical compositions containing them” (Dr. Reddy's Laboratories Ltd., priority 1997, dated 2005).

Experiments:
Type in all cases: in vivo
[1] = system: Swiss albino mice and Guinea pigs; assay: Plasma triglyceride and total cholesterol lowering activity in Swiss albino mice and Guinea pigs; details: species (Swiss albino mice or Guinea pigs) not given
Description: Male Swiss albino mice (SAM) and male Guinea pigs were obtained from NIN and housed in DRF animal house. All these animals were maintained under 12 hour light and dark cycle at 25±1° C. Animals were given standard laboratory chow (NIN, Hyderabad, India) and water, ad libitum. SAM of 20-25 g body weight range and Guinea pigs of 500-700 g body weight range were used (Oliver, P., Plancke, M. O., Marzin, D., Clavey, V., Sauzieres, J and Fruchart, J. C. Effects of fenofibrate, gemfibrozil and nicotinic acid on plasma lipoprotein levels in normal and hyperlipidemic mice. Atherosclerosis. 1988. 70: 107-114).
The test compounds were administered orally to Swiss albino mice at 0.3 to 30 mg/kg/day dose for 6 days. Control mice were treated with vehicle (0.25% Carboxymethylcellulose; dose 10 ml/kg). The test compounds were administered orally to Guinea pigs at 0.3 to 30 mg/kg/day dose for 6 days. Control animals were treated with vehicle (0.25% Carboxymethylcellulose; dose 5 ml/kg).
The blood samples were collected in fed state 1 hour after drug administration on 0 and 6 day of treatment. The blood was collected from the retro-orbital sinus through heparinised capillary in EDTA containing tubes. After centrifugation, plasma sample was separated for triglyceride and total cholesterol (Wieland, 0. Methods of Enzymatic analysis. Bergermeyer, H. O., Ed., 1963. 211-214; Trinder, P. Ann. Clin. Biochem. 1969. 6: 24-27). Measurement of plasma triglyceride, total cholesterol and HDL were done using commercial kits (Dr. Reddy's Diagnostic Division, Hyderabad, India).
(§1) Formulae for Calculation: • 1. Percent reduction in Blood sugar/triglycerides/total cholesterol/body weight were calculated according to the formula: • Percent reduction [formula] OC=Zero day control group value OT=Zero day treated group value TC=Test day control group value TT=Test day treated group value

C57BL/KsJ-db/db mice = assay: Blood sugar and triglycerides lowering activity in db/db mice (genetic model)
Source text: Mutation in colonies of laboratory animals and different sensitivities to dietary regimens have made the development of animal models with non-insulin dependent diabetes and hyperlipidemia associated with obesity and insulin resistance possible. Genetic models such as db/db and ob/ob (Diabetes, (1982) 31(1): 1-6) mice and zucker fa/fa rats have been developed by the various laboratories for understanding the pathophysiology of disease and testing the efficacy of new antidiabetic compounds (Diabetes, (1983) 32: 830-838; Annu. Rep. Sankyo Res. Lab. (1994). 46 : 1-57). The homozygous animals, C57 BL/KsJ-db/db mice developed by Jackson Laboratory, US, are obese, hyperglycemic, hyperinsulinemic and insulin resistant (J. Clin. Invest., (1990) 85: 962-967), whereas heterozygous are lean and normoglycemic. In db/db model, mouse progressively develops insulinopenia with age, a feature commonly observed in late stages of human type II diabetes when blood sugar levels are insufficiently controlled. The state of pancreas and its course vary according to the models. Since this model resembles that of type II diabetes mellitus, the compounds of the present invention were tested for blood sugar and triglycerides lowering activities.
Male C57BL/KsJ-db/db mice of 8 to 14 weeks age, having body weight range of 35 to 60 grams, bred at Dr. Reddy's Research Foundation (DRF)animal house, were used in the experiment. The mice were provided with standard feed (National Institute of Nutrition (NIN), Hyderabad, India) and acidified water, ad libitum. The animals having more than 350 mg/dl blood sugar were used for testing. The number of animals in each group was 4.
Test compounds were suspended on 0.25% carboxymethyl cellulose and administered to test group at a dose of 0.1 mg to 30 mg/kg through oral gavage daily for 6 days. The control group received vehicle (dose 10 ml/kg). On 6th day the blood samples were collected one hour after administration of test compounds/vehicle for assessing the biological activity.
The random blood sugar and triglyceride levels were measured by collecting blood (100 μl) through orbital sinus, using heparinised capillary in tubes containing EDTA which was centrifuged to obtain plasma. The plasma glucose and triglyceride levels were measured spectrometrically, by glucose oxidase and glycerol-3-PO4 oxidase/peroxidase enzyme (Dr. Reddy's Lab. Diagnostic Division Kits, Hyderabad, India) methods respectively.
The blood sugar and triglycerides lowering activities of the test compound was calculated according to the formula.
as §1

[2] = system: cholesterol fed Syrian Hamsters; assay: Body weight reducing effect in cholesterol fed hamsters; details: 10 mg/kg/day orally for 15 days
Description: Male Syrian Hamsters were procured from NIN, Hyderabad, India. Animals were housed at DRF animal house under 12 hour light and dark cycle at 25±1° C. with free access to food and water. Animals were maintained with 1% cholesterol containing standard laboratory chow (NIN) from the day of treatment.
The test compounds were administered orally at 1 to 30 mg/kg/day dose for 15 days. Control group animals were treated with vehicle (Mill Q water, dose 10 ml/kg/day). Body weights were measured on every 3rd day.
as §1

[3] = system: hypercholesterolemic Sprague Dawley rats; assay: Plasma triglyceride and cholesterol lowering activity in hypercholesterolemic rat models; details: 1 mg/kg orally for 3 days; for HDL (%) ↑: increase; for Total Cholesterol (%) ↓ / Triglyceride (%) ↓ / LDL (%) ↓ / VLDL (%) ↓: reduction; for LDL (%) ↓: LDL calculated from total cholesterol; for LDL (%) ↓ / VLDL (%) ↓: HDL and triglyceride; for VLDL (%) ↓: VLDL calculated from total cholesterol
Description: Male Sprague Dawley rats (NIN stock) were bred in DRF animal house. Animals were maintained under 12 hour light and dark cycle at 25±1° C. Rats of 180 -200 gram body weight range were used for the experiment. Animals were made hypercholesterolemic by feeding 2% cholesterol and 1% sodium cholate mixed with standard laboratory chow [National Institute of Nutrition (NIN), Hyderabad, India] for 6 days. Throughout the experimental period the animals were maintained on the same diet (Petit, D., Bonnefis, M. T., Rey, C and Infante, R. Effects of ciprofibrate on liver lipids and lipoprotein synthesis in normo- and hyperlipidemic rats. Atherosclerosis. 1988. 74:215-225).
The test compounds were administered orally at a dose 0.1 to 30 mg/kg/day for 3 days. Control group was treated with vehicle alone (0.25% Carboxymethylcellulose; dose 10 ml/kg).
The blood samples were collected in fed state 1 hour after drug administration on 0 and 3 day of compound treatment. The blood was collected from the retro-orbital sinus through heparinised capillary in EDTA containing tubes. After centrifugation, plasma sample was separated for total cholesterol, HDL and triglyceride estimations. Measurement of plasma triglyceride, total cholesterol and HDL were done using commercial kits (Dr. Reddy's Laboratory, Diagnostic Division, India). LDL and VLDL cholesterol were calculated from the data obtained for total cholesterol, HDL and triglyceride. The reduction of various parameters examined are calculated according to the formula.
as §1
2. LDL and VLDL cholesterol levels were calculated according to the formula: [formula] [formula]

[4] = 3 mg/kg oral gavage daily for 6 days
[5] = 10 mg/kg oral gavage daily for 6 days

Structure (SMILES): CCOC(Cc1ccc(OCCN2CCOc3ccccc32)cc1)C(N)=O (racemic) [Example 33, 3-[4-[2-(2,3-Dihydro-1,4-benzoxazin-4-yl)ethoxy]phenyl]-2-ethoxypropanamide]
- Triglyceride Lowering (%) ([1]; 3 mg/kg orally for 6 days): 55%

Structure (SMILES): CCOC(Cc1ccc(OCCN2C(=O)COc3ccccc32)cc1)C(=O)O (racemic) [Example 41, 3-[4-[2-(3-Oxo-2H-1,4-benzoxazin-4-yl)ethoxy]phenyl]-2-ethoxypropanoic acid]
- Triglyceride Lowering (%) ([1]; 10 mg/kg orally for 6 days): 54%
- Reduction in Blood Glucose Level (%) (C57BL/KsJ-db/db mice; [4]): 53%
- Triglyceride Lowering (%) (C57BL/KsJ-db/db mice; [4]): 27%

Structure (SMILES): CCOC(Cc1ccc2cc(OCCN3CCSc4ccccc43)ccc2c1)C(=O)O (racemic) [Example 43, 3-[6-[2-(2,3-Dihydro-1,4-benzothiazin-4-yl)ethoxy]naphthyl]-2-ethoxypropanoic acid]
- Triglyceride Lowering (%) ([1]; 3 mg/kg orally for 6 days): 49%

Structure (SMILES): CCOC(Cc1ccc(OCCN2CCOc3ccccc32)cc1)C(=O)[O-].[Na+] (stereo not shown) [Example 27, 3-[4-[2-(2,3-Dihydro-1,4-benzoxazin-4-yl)ethoxy]phenyl]-2-ethoxypropanoic acid, sodium salt]
- Body weight Reduction (%) [2]: 12%
- HDL (%) ↑ [3]: 37%
- Total Cholesterol (%) ↓ [3]: 57%
- Triglyceride (%) ↓ [3]: 43%
- LDL (%) ↓ [3]: 58%
- VLDL (%) ↓ [3]: 79%

Structure (SMILES): CCOC(Cc1ccc(OCCN2CCSc3ccccc32)cc1)C(=O)[O-].[Na+] (stereo not shown) [Example 30, 3-[4-[2-(2,3-Dihydro-1,4-benzothiazin-4-yl)ethoxy]phenyl]-2-ethoxypropanoic acid, sodium salt]
- Body weight Reduction (%) [2]: 18%

Structure (SMILES): CCOC(Cc1ccc2cc(OCCN3CCSc4ccccc43)ccc2c1)C(=O)[O-].[Na+] (stereo not shown) [Example 44]
- HDL (%) ↑ [3]: 46%
- Total Cholesterol (%) ↓ [3]: 42%
- Triglyceride (%) ↓ [3]: 50%
- LDL (%) ↓ [3]: 44%
- VLDL (%) ↓ [3]: 53%
- Reduction in Blood Glucose Level (%) (C57BL/KsJ-db/db mice; [5]): 47%
- Triglyceride Lowering (%) (C57BL/KsJ-db/db mice; [5]): 74%

Structure (SMILES): CCCCOC(Cc1ccc(OCCN2CCOc3ccccc32)cc1)C(=O)[O-].[Na+] (stereo not shown) [Example 50, 3-[4-[2-(2,3-Dihydro-1,4-benzoxazin-4-yl)ethoxy]phenyl]-2-butoxypropanoic acid, sodium salt]
- Reduction in Blood Glucose Level (%) (C57BL/KsJ-db/db mice; [4]): 45%
- Triglyceride Lowering (%) (C57BL/KsJ-db/db mice; [4]): 23%

Structure (SMILES): CCOC(Cc1ccc(OCC2CN(Cc3ccccc3)c3ccccc3O2)cc1)C(=O)[O-].[Na+] (stereo not shown) [Example 63, 3-[4-(4-Benzyl-3,4-dihydro-2H-1,4-benzoxazin-2-yl)methoxyphenyl]-2-ethoxypropanoic acid, sodium salt]
- Triglyceride Lowering (%) ([1]; 3 mg/kg orally for 6 days): 57%
